Measured values from patent US7217413B1, “Use of novel agents inducing cell death in synergy with interferons” (priority 1998, dated 2007).
Residues, ends and D or L forms follow the SMILES beside them. *: point of attachment. Cbz = O=C(OCc1ccccc1)*; CH2F = FC*

What was measured:
REF (T) PML cells [1] = test: TUNEL test of cell death triggered by PML (ZnCl2 induction); format: cell-based, rat
Experimental: (§1) The REF (T) and MEF (T) cells are rat and mouse embryonic fibroblasts immortalized by an SV4DT expression vector. […] For clonogenicity tests, the cells were transfected with 10 μg of SRαtkneo-PML or SRαkneo on culture dishes 10 cm in diameter and selected with neomycin (500 μg/ml). To obtain inducible clones, a pool of RET (T) cells was cotransfected with the plasmid pKSmMt-PML and a hygromycin resistance vector (DSP-Hygro). The resistant colonies were examined for the expression of PML after four hours of treatment with ZnCl2 (150 μM) and subjected to a second cycle of cloning by limiting dilution. Inducible CHO clones were constructed in a similar manner. The monocytes were prepared according to the method of Estaquier et al., 1997. Etoposide (used at 100 μM for 16 to 24 hours) was obtained from Biomol Research Laboratories, zVAD (benzyloxycarbonyl-Val-Ala-Asp fluoromethyl ketone, used at 250 μg/ml) is marketed by Bachem and rat IFNα by Access BioMedical. The human α-interferon was provided by Schering-Plough. The antibodies against the human PML protein are described in the article by Daniel et al., 1993. The Western blot experiments with the endogenous rat PML protein were carried out with the monoclonal antibody 5E10 which detects both rat PML and human PML.
The cells were treated for 2 hours with 150 μM of ZnCl2 (unless otherwise stated) in the presence or absence of heat-inactivated foetal calf serum, and then the cells were washed and incubated in a ZnCl2-free medium. The TUNEL test was carried out according to the manufacturer's instructions (Boehringer Mannheim, kit for detection of cell death in situ), with the exception of the fixing step (4% formaldehyde in phosphate PBS buffer for 10 minutes). The cellular DNA content was evaluated by incubating for 10 minutes in propidium iodide at 50 μg/ml, in the presence of Rnase A at 100 μg/ml at 4° C. […] The samples were analysed on a FACScan analyser (Lysis II software, Becton Dickinson). […] After centrifugation, 20 μl of supernatant and 180 μl of reaction buffer (100 mM Hepes, pH 7.4, 2% of glycerol, 5 mM DTT, 0.5 mM EDTA, 50 μM DEVD-pNA (Biomol Research Laboratories)) were mixed and the absorbence at 405 nm was measured after incubating for four hours at 37° C. […]
It is known that the execution of programmed cell death involves the proteolytic activation—of caspases which induce the phenotypic changes in apoptosis by cleavage of nuclear and cytoplasmic proteins (Salvesen et al., 1997). […] Unlike etoposide, no significant cleavage of the colorimetric caspase substrates, YVAD-pNa (class 1 caspase, Boehringer Mannheim) and DEVD-pNA (class 3 caspase, Boehringer Mannheim) after induction with PML could be detected (FIG. 2B).

REF (T) PML cells [2] = test: Kinetics of synchronized cell death after ZnCl2 induction of PML; format: cell-based, rat
Experimental: The cells were treated for 2 hours with 150 μM of ZnCl2 (unless otherwise stated) in the presence or absence of heat-inactivated foetal calf serum, and then the cells were washed and incubated in a ZnCl2-free medium. The TUNEL test was carried out according to the manufacturer's instructions (Boehringer Mannheim, kit for detection of cell death in situ), with the exception of the fixing step (4% formaldehyde in phosphate PBS buffer for 10 minutes). The cellular DNA content was evaluated by incubating for 10 minutes in propidium iodide at 50 μg/ml, in the presence of Rnase A at 100 μg/ml at 4° C. Analysis of the expression of phosphatidylserine on the outer sheet of the cell membranes was carried out using Annexin-V-fluos labelling (Boehringer Mannheim) and a loss of mitochondrial polarity with Rhodamin 123 (molecular probes) according to the manufacturer's instructions. The samples were analysed on a FACScan analyser (Lysis II software, Becton Dickinson). […] After centrifugation, 20 μl of supernatant and 180 μl of reaction buffer (100 mM Hepes, pH 7.4, 2% of glycerol, 5 mM DTT, 0.5 mM EDTA, 50 μM DEVD-pNA (Biomol Research Laboratories)) were mixed and the absorbence at 405 nm was measured after incubating for four hours at 37° C. […]

REF (T) PML cells [3] = test: TUNEL test of cell death induced by IFNα; format: cell-based, rat; settings: for cell death evaluated by TUNEL (positive TUNEL signal): with 1 000 U/ml of IFNα
Experimental: as §1
The cells were treated for 2 hours with 150 μM of ZnCl2 (unless otherwise stated) in the presence or absence of heat-inactivated foetal calf serum, and then the cells were washed and incubated in a ZnCl2-free medium. The TUNEL test was carried out according to the manufacturer's instructions (Boehringer Mannheim, kit for detection of cell death in situ), with the exception of the fixing step (4% formaldehyde in phosphate PBS buffer for 10 minutes). The cellular DNA content was evaluated by incubating for 10 minutes in propidium iodide at 50 μg/ml, in the presence of Rnase A at 100 μg/ml at 4° C. Analysis of the expression of phosphatidylserine on the outer sheet of the cell membranes was carried out using Annexin-V-fluos labelling (Boehringer Mannheim) and a loss of mitochondrial polarity with Rhodamin 123 (molecular probes) according to the manufacturer's instructions. The samples were analysed on a FACScan analyser (Lysis II software, Becton Dickinson). For the cleavage of the substrate with caspases, 5×10^6 cells were washed in PBS buffer, and incubated for one hour at 4° C. in 200 μl of lysis buffer (10 mM Hepes, pH 7.4, 2 mM EDTA, 2 mM DTT, 0.1% CHAPS). After centrifugation, 20 μl of supernatant and 180 μl of reaction buffer (100 mM Hepes, pH 7.4, 2% of glycerol, 5 mM DTT, 0.5 mM EDTA, 50 μM DEVD-pNA (Biomol Research Laboratories)) were mixed and the absorbence at 405 nm was measured after incubating for four hours at 37° C. The anti-PARP polyclonal antibody SA-252 is marketed by Biomol Research Laboratories.
The table below represents the cell death, evaluated by TUNEL, of REF (T) PML cells treated for two days with 1 000 U/ml of IFNα and 10^−6 M of As2O3 or of zVAD.

Primary monocytes = test: Survival of primary monocytes exposed to α-interferon; format: cell-based
PML protein = test: Western blot of PML protein expression and location on nuclear bodies; format: cell-based, rat; settings: REF (T) cells
Experimental: The REF (T) and MEF (T) cells are rat and mouse embryonic fibroblasts immortalized by an SV4DT expression vector. […] The Western blot experiments with the endogenous rat PML protein were carried out with the monoclonal antibody 5E10 which detects both rat PML and human PML.

[4] = treated for two days, 10^-6 M of As2O3 or of zVAD

[Cl-].[Cl-].[Zn+2] [ZnCl2]
positive cells / positive TUNEL signal (REF (T) PML cells [1]; ZnCl2 alone): 45%
time to synchronized cell death of the whole cell population (REF (T) PML cells [2]; 50 μM of ZnCl2): 48 h
time to synchronized cell death of the whole cell population (REF (T) PML cells [2]; 150 μM of ZnCl2): six

IFNα
kinetics of cell death induction (REF (T) PML cells [3]; compared with ZnCl2 induction): same kinetics as 50 μM ZnCl2
cell death evaluated by TUNEL (positive TUNEL signal) (REF (T) PML cells [3]; [4]): 42%
cell death evaluated by TUNEL (positive TUNEL signal) (REF (T) PML cells [3]; treated for two days, 10^-6 M of As2O3 or of zVAD, listed as α-interferon): 42%
time to complete disappearance of the cell culture (Primary monocytes; α-interferon alone (1 000 U/ml)): seven
levels of expression of PML (PML protein): induces rat PML

COC(=O)C[C@H](NC(=O)[C@H](C)NC(=O)[C@@H](NC(=O)OCc1ccccc1)C(C)C)C(=O)CF [zVAD, benzyloxycarbonyl-Val-Ala-Asp(O-methyl) fluoromethyl ketone] (Cbz-Val-Ala-Asp(OMe)-CH2F)
effect on cell death induced by PML (REF (T) PML cells [1]; ZnCl2 induction, FIG. 1C): does not inhibit cell death induced by PML
effect on apoptosis induced by etoposide (REF (T) PML cells [1]; etoposide-treated cells, FIG. 1C): blocks apoptosis induced by etoposide
positive TUNEL signal (REF (T) PML cells [1]; zVAD and ZnCl2): 71%
cell death evaluated by TUNEL (positive TUNEL signal) (REF (T) PML cells [3]; [4]): 60%
cell death evaluated by TUNEL (REF (T) PML cells [3]; without IFNα, treated for two days, 10^-6 M of As2O3 or of zVAD): 5%
time to death of the whole cell population (Primary monocytes; zVAD added with α-interferon): ≤ 24 h
cell death with zVAD alone (Primary monocytes; zVAD alone after seven days, three cultures out of eleven): induced the death of part of the culture
cell death with zVAD alone (Primary monocytes; zVAD alone for 20 days, most of the primary cultures (8/11)): Little or no cell death
levels of expression of PML (PML protein): increased
